This note sets out measurements from US10376510B2, “2,4- or 4,6-diaminopyrimidine compounds as IDH2 mutants inhibitors for the treatment of cancer” (AGIOS PHARMACEUTICALS, INC., priority 2013, dated 2019).

In experiment [1] the test system is U87MG pLVX-IDH2 R140Q-neo cells. The experiment is described as follows: U87MG pLVX-IDH2 R140Q-neo cell based assay (2-HG in media by LC-MS). Details: key to Cell R140Q: values indicated as “A” represent an IC50 of less than 50 nM; values indicated as “B” represent an IC50 of between 50 nM and 100 nM; values indicated as “C” represent an IC50 of greater than 100 nM; values indicated as “D” represent that the compound was either inactive or not tested in that particular assay. The conditions noted are these: 2-HG at 48 hours, class symbols; for IC50: Homo sapiens, U-87 MG. How it is done:
U87MG pLVX-IDH2 R140Q-neo Cell Based Assay.
U87MG pLVX-IDH2 R140Q-neo cells are grown in T125 flasks in DMEM containing 10% FBS, 1× penicillin/streptomycin and 500 μg/mL G418. They are harvested by trypsin and seeded into 96 well white bottom plates at a density of 5000 cell/well in 100 μl/well in DMEM with 10% FBS. No cells are plated in columns 1 and 12. Cells are incubated overnight at 37° C. in 5% CO2. The next day compounds are made up at 2x concentration and 100 ul are added to each cell well. The final concentration of DMSO is 0.2% and the DMSO control wells are plated in row G. The plates are then placed in the incubator for 48 hours. At 48 hours, 100 ul of media is removed from each well and analyzed by LC-MS for 2-HG concentrations. The cell plate is placed back in the incubator for another 24 hours. At 72 hours post compound addition, 10 mL/plate of Promega Cell Titer Glo reagent is thawed and mixed. The cell plate is removed from the incubator and allowed to equilibrate to room temperature. Then 100 ul of reagent is added to each well of media. The cell plate is then placed on an orbital shaker for 10 minutes and then allowed to sit at room temperature for 20 minutes. The plate is then read for luminescence with an integration time of 500 ms to determine compound effects on growth inhibition.

A further experiment addresses T1, IDH2 R140Q (Homo sapiens, UniProt P48735, R140Q).
T1 sequence (P48735 40-452 R140Q): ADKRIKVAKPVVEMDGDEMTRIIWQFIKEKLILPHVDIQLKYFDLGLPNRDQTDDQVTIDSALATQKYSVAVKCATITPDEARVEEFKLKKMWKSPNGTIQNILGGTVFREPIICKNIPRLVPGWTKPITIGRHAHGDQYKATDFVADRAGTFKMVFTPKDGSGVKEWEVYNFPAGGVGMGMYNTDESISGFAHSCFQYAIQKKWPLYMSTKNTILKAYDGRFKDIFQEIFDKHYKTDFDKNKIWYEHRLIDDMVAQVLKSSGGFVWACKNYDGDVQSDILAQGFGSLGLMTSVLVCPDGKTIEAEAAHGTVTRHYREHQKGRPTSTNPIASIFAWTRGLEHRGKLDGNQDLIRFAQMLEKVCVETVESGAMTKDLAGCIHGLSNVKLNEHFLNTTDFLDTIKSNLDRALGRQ
The experiment is described as follows: IDH2 R140Q enzymatic assay (NADPH cofactor depletion, diaphorase/resazurin readout). The conditions noted are these: IDH2 R140Q enzyme, 16 hours preincubation, class symbols; for IC50: read-out: Enz R140Q. Type of experiment: biochemical. Details: key to Enz R140Q: values indicated as “A” represent an IC50 of less than 50 nM; values indicated as “B” represent an IC50 of between 50 nM and 100 nM; values indicated as “C” represent an IC50 of greater than 100 nM; values indicated as “D” represent that the compound was either inactive or not tested in that particular assay. How it is done:
Compounds are assayed for IDH2 R172K inhibitory activity through a cofactor depletion assay. […] The reaction is terminated by the addition of a second enzyme, diaphorase, and a corresponding substrate, resazurin. Diaphorase reduces resazurin to the highly fluorescent resorufin with the concomitant oxidation of NADPH to NADP, both halting the IDH2 reaction by depleting the available cofactor pool and facilitating quantitation of the amount of cofactor remaining after a specific time period through quantitative production of an easily detected fluorophore.
Specifically, into each of 12 wells of a 384-well plate, 1 μl of 100× compound dilution series is placed, followed by the addition of 40 μl of buffer (50 mM potassium phosphate (K2HPO4), pH 7.5; 150 mM NaCl; 10 mM MgCl2, 10% glycerol, 0.05% bovine serum albumin, 2 mM beta-mercaptoethanol) containing 1.25 μg/ml IDH2 R172K. The test compound is then incubated for 16 hours at room temperature with the enzyme; before starting the IDH2 reaction with the addition of 10 μl of substrate mix containing 50 μM NADPH and 6.3 mM α-KG in the buffer described above. After a further one hour of incubation at room temperature, the reaction is halted and the remaining NADPH measured through conversion of resazurin to resorufin by the addition of 25 μl Stop Mix (36 μg/ml diaphorase enzyme and 60 μM resazurin; in buffer). After one minute of incubation the plate is read on a plate reader at Ex544/Em590.
For determination of the inhibitory potency of compounds against IDH2 R140Q in an assay format similar to the above, a similar procedure is performed, except that the final testing concentration is 0.25 μg/ml IDH2 R140Q protein, 4 μM NADPH and 1.6 mM α-KG.
For determination of the inhibitory potency of compounds against IDH2 R140Q in a high throughput screening format, a similar procedure is performed, except that 0.25 μg/ml IDH2 R140Q protein was utilized in the preincubation step, and the reaction is started with the addition of 4 μM NADPH and 8 μM α-KG.
A general note: The colour change of resazurin is a common sign of viable cells or microbes.

`CC(C)CC(=O)Nc1cc(-c2ccccc2)nc(Nc2ccccc2)n1` [Compound 735]: the IC50 (in experiment [1]; on IDH2 R140Q) was above 100 nM in each case.
For the molecule `CC(C)Nc1cc(Nc2cc(Cl)ccn2)nc(-c2cccc(C(F)(F)F)n2)n1` [Compound 705], the IC50 (in experiment [1]; on IDH2 R140Q) was below 50 nM throughout.
For `N#CC1(c2ccnc(Nc3cc(NCC4CC4)nc(-c4cccc(C(F)(F)F)n4)n3)c2)CC1` [Compound 719], the IC50 (in experiment [1]; at IDH2 R140Q) was below 50 nM in each case.
Regarding `CC(C)(C)Nc1cc(Nc2cc(C3(C#N)CC3)ccn2)nc(-c2cccc(C(F)(F)F)n2)n1` [Compound 721], the IC50 was below 50 nM in experiment [1] and 50 to 100 nM at IDH2 R140Q.
Consider `Nc1cc(Nc2cc(C(F)(F)F)ncn2)nc(-c2cccc(C(F)(F)F)n2)n1` [Compound 726], for which the “Cell R140Q” value in experiment [1] is reported as “D”. The IC50 at IDH2 R140Q is above 100 nM.
As for `COc1ccc(CNc2cc(Nc3cc(C(F)(F)F)ncn3)nc(-c3cccc(C(F)(F)F)n3)n2)cc1` [Compound 724], the “Cell R140Q” value in experiment [1] was “D”. Also, the IC50 on IDH2 R140Q is below 50 nM.
For `COc1ccc(CNc2cc(Nc3ccnc(C(F)(F)F)c3)nc(-c3cccc(C(F)(F)F)n3)n2)cc1` [Compound 727], the “Cell R140Q” value in experiment [1] is “D”. Also, the IC50 on IDH2 R140Q lay within 50 to 100 nM.
As to `CC(C)(C)Nc1cc(Nc2cc(C(F)(F)F)ccn2)nc(-c2cccc(C(F)(F)F)n2)n1` [Compound 716], the results for the IC50 (in experiment [1]; at IDH2 R140Q) were below 50 nM and 50 to 100 nM, respectively.
`CC(C)Nc1cc(-c2cccc(C(F)(F)F)n2)nc(Nc2ccnc(C(F)(F)F)c2)n1` [Compound 739]: the IC50 in experiment [1] was above 100 nM; on IDH2 R140Q, below 50 nM.
As for `CC(C)(C)Nc1cc(Nc2cc(C(F)(F)F)ncn2)nc(-c2cccc(C(F)(F)F)n2)n1` [Compound 723], the “Cell R140Q” value in experiment [1] is on record as “D”. Moreover, the IC50 on IDH2 R140Q fell in the range of 50 to 100 nM.
For the molecule `CC(C)(O)CNc1cc(Nc2cc(C(F)(F)F)ccn2)nc(-c2cccc(C(F)(F)F)n2)n1` [Compound 718], the IC50 (in experiment [1]; at IDH2 R140Q) was below 50 nM throughout.
As for `CC(C)C(=O)Nc1cc(Nc2ccccc2)nc(-c2ccccc2)n1` [Compound 702], the IC50 in experiment [1] is above 100 nM; on IDH2 R140Q, below 50 nM.
Consider `CC(C)Nc1cc(Nc2cccc(Cl)n2)nc(-c2cccc(C(F)(F)F)n2)n1` [Compound 710], for which the IC50 (in experiment [1]; at IDH2 R140Q) was below 50 nM each time.
Consider `O=C(Cc1ccccc1)Nc1nc(Nc2ccccc2)cc(-c2ccccc2)n1` [Compound 734], for which the IC50 in experiment [1] was above 100 nM. Besides, the “Enz R140Q” value on IDH2 R140Q is “D”.
Consider `CC(C)Nc1cc(Nc2cc(C(C)(F)F)ccn2)nc(-c2cccc(C(F)(F)F)n2)n1` [Compound 713], for which the IC50 (in experiment [1]; on IDH2 R140Q) was below 50 nM throughout.
Consider `CC(C)(CO)Nc1cc(Nc2cc(C(F)(F)F)ncn2)nc(-c2cccc(C(F)(F)F)n2)n1` [Compound 725], for which the “Cell R140Q” value in experiment [1] is reported as “D”. Moreover, the IC50 on IDH2 R140Q was in the range of 50 to 100 nM.
Regarding `CC(C)OC(=O)Nc1cc(-c2ccccc2)nc(Nc2ccccc2)n1` [Compound 737], the “Cell R140Q” value in experiment [1] is “D”. Moreover, the “Enz R140Q” value at IDH2 R140Q is on record as “D”.
Regarding `CC(C)(O)CNc1cc(Nc2ccccn2)nc(-c2cccc(C(F)(F)F)n2)n1` [Compound 707], the IC50 (in experiment [1]; at IDH2 R140Q) was above 100 nM each time.
Consider `CC(C)(O)CNc1cc(Nc2ccnc(C(F)(F)F)c2)nc(-c2cccc(C(F)(F)F)n2)n1` [Compound 709], for which the IC50 (in experiment [1]; at IDH2 R140Q) was above 100 nM in each case.
For `CC(C)Nc1cc(Nc2ccnc(C(F)(F)F)c2)nc(-c2cccc(C(F)(F)F)n2)n1` [Compound 706], the IC50 (in experiment [1]; on IDH2 R140Q) was below 50 nM in each case.
On to `CC(C)Nc1cc(Nc2cc(C#N)ccn2)nc(-c2cccc(C(F)(F)F)n2)n1` [Compound 712], for which the IC50 (in experiment [1]; on IDH2 R140Q) was below 50 nM throughout.
`CC(C)Nc1cc(Nc2ccccc2)nc(-c2ccccc2)n1` [Compound 700]: the IC50 in experiment [1] is above 100 nM; on IDH2 R140Q, 50 to 100 nM.
Taken in the same sequence, the figures for `CC(C)Nc1cc(-c2ccccc2)nc(Nc2ccccc2)n1` [Compound 730] were 50 to 100 nM and 50 to 100 nM.
Regarding `CC(C)Nc1cc(Nc2cc(C(F)(F)F)ccn2)nc(-c2cccc(C(F)(F)F)n2)n1` [Compound 711], the IC50 (in experiment [1]; at IDH2 R140Q) was below 50 nM each time.
As for `CC(C)Nc1cc(Nc2cc(C3(C#N)CC3)ccn2)nc(-c2cccc(C(F)(F)F)n2)n1` [Compound 720], the IC50 (in experiment [1]; on IDH2 R140Q) was below 50 nM each time.
Take `CC(C)Nc1cc(Nc2ccccc2)nc(-c2cccc(C(F)(F)F)n2)n1` [Compound 708]: the results for the IC50 (in experiment [1]; on IDH2 R140Q) were 50 to 100 nM and below 50 nM, respectively.
With `Nc1cc(Nc2cc(C(F)(F)F)ccn2)nc(-c2cccc(C(F)(F)F)n2)n1` [Compound 722], in experiment [1], the “Cell R140Q” value is recorded as “D”. Also, the IC50 at IDH2 R140Q was above 100 nM.
With `CC(C)Nc1nc(Nc2ccnc(C(F)(F)F)c2)cc(-c2cccc(C(F)(F)F)n2)n1` [Compound 738], the values for the IC50 (in experiment [1]; on IDH2 R140Q) were 50 to 100 nM and below 50 nM, respectively.
`CC(C)C(=O)Nc1cc(-c2ccccc2)nc(Nc2ccccc2)n1` [Compound 736]: the IC50 in experiment [1] is above 100 nM. For the same molecule, at IDH2 R140Q, the “Enz R140Q” value is recorded as “D”.
Turning to `FC(F)(F)c1ccnc(Nc2cc(NCC3CC3)nc(-c3cccc(C(F)(F)F)n3)n2)c1` [Compound 715], the IC50 (in experiment [1]; on IDH2 R140Q) was below 50 nM throughout.
Turning to `CC(C)Nc1cc(Nc2cc(C(F)(F)F)ncn2)nc(-c2cccc(C(F)(F)F)n2)n1` [Compound 717], the IC50 (in experiment [1]; at IDH2 R140Q) was below 50 nM in each case.
Turning to `CC(C)Nc1cc(Nc2cc(C(F)F)ccn2)nc(-c2cccc(C(F)(F)F)n2)n1` [Compound 714], the IC50 (in experiment [1]; on IDH2 R140Q) was below 50 nM each time.
On to `Nc1cc(Nc2ccnc(C(F)(F)F)c2)nc(-c2cccc(C(F)(F)F)n2)n1` [Compound 728], for which the “Cell R140Q” value in experiment [1] is recorded as “D”. At IDH2 R140Q, the “Enz R140Q” value was “D”.
Consider `CC(C)Nc1cc(Nc2ccccn2)nc(-c2cccc(C(F)(F)F)n2)n1` [Compound 704], for which the IC50 (in experiment [1]; at IDH2 R140Q) was below 50 nM in each case.
For `CC(C)Nc1nc(Nc2ccccc2)cc(-c2ccccc2)n1` [Compound 729], in experiment [1], the “Cell R140Q” value is on record as “D”. Further, the “Enz R140Q” value at IDH2 R140Q is listed as “D”.
For the molecule `CC(C)OC(=O)Nc1cc(Nc2ccccc2)nc(-c2ccccc2)n1` [Compound 703], the IC50 in experiment [1] was above 100 nM. The “Enz R140Q” value on IDH2 R140Q is reported as “D”.
Molecule `CC(C)CC(=O)Nc1cc(Nc2ccccc2)nc(-c2ccccc2)n1` [Compound 701] gave an IC50 in experiment [1] above 100 nM. Further, the “Enz R140Q” value at IDH2 R140Q is recorded as “D”.
